# What was measured:
# [1] = test system: Klebsiella pneumoniae (ATCC 43816); format: in vivo
# Experimental: Vancomycin and LpxCi-5 were dissolved in 30% HPβCD (2-hydroxypropyl-β-cyclodextrin). Test substances were each administered subcutaneously (SC) singly or in combination to test animals at 2 hours and 14 hours after bacterial inoculation then bid daily for a total of 1, 2, 3 or 7 day(s). The dosing volume was 5 mL/kg.
# Groups of 5 or 10 male specific-pathogen-free CD-1 (Crl.) mice weighing 24±2 g were used. Animals were immunosuppressed by two or three intraperitoneal injections of cyclophosphamide, the first at 150 mg/kg 4 days before infection (day −4) and the second or third at 100 mg/kg 1 day before or 3 days after infection (day −1 or +3). On day 0, animals were inoculated intramuscularly (0.1 mL/thigh) into the right thigh with a specific number (1.35×10^7 CFU/mouse) of Klebsiella pneumoniae (ATCC 43816). Vehicle and test substances (singly or in combination) were each administered subcutaneously 2 hours and 14 hours after inoculation then bid for a total of 1, 2, 3 or 7 consecutive day(s). Groups at 24, 48, 72 hours and day 8 hours after treatment as the designated time of harvest, muscle of the right thigh was harvested from each of the survival test animals. An additional group with no treatment, at 2 hours after inoculation, the muscle of the right thigh was harvested and viable CFU on agar plates with or without drug were quantified by standard methods. Animals in groups designated for Day 8 harvest are 10 mice and daily tally of survivors were kept until harvest and recorded. A non-infected group was just treated with LpxCi-5 and kept out to Day 8 and then harvested. The removed muscle tissues were then homogenized in 3˜4 mL of PBS, pH 7.4, with a ceramic mortar. Homogenates of 0.1 mL were used for serial 10-fold dilutions and plated on Muller-Hinton Broth in 1.5% Bacto agar and plated in parallel with drug plates for CFU determination. The original inoculum was adjusted to 2×10^8 CFU/0.1 mL and then plated onto the 3 different drug plates of LpxCi-5 for CFU count.
# The immunity of animals treated with vehicle or vancomycin alone was suppressed by two intraperitoneal injections of cyclophosphamide, the first was at 150 mg/kg 4 days before infection (day −4) and the second was at 100 mg/kg 1 day before infection (day −1). On day 0, test compound and vehicle were each administered subcutaneously at 2 and 14 hrs after animals were inoculated intramuscularly (0.1 mL/thigh) with 1.35×10^7 CFU/mouse of Klebsiella pneumoniae (ATCC 43816).
# (§1) The immunity of animals treated with LpxCi-5 alone was suppressed by two or three intraperitoneal injections of cyclophosphamide, the first was at 150 mg/kg 4 days before infection (day −4); the second and the third was at 100 mg/kg 1 day before and three days after infection (day −1 and day +3). On day 0, test compound were each administered subcutaneously bid at 2 and 14 hrs after animals were inoculated intramuscularly (0.1 mL/thigh) with 1.35×10^7 CFU/mouse of Klebsiella pneumoniae (ATCC 43816) for one, two, three or seven consecutive days. At 24, 48, 72 hours or at day 8 after treatment, muscle of the right thigh was harvested from each of the test animals for CFU determination in normal and drug plates.
# as §1, with “both vancomycin and the LpxC inhibitor, LpxCi-5,” for “LpxCi-5 alone”, “compounds in combination” for “compound”, “days.” for “days. At 24, 48, 72 hours or at day 8 after treatment, muscle of the right thigh was harvested from each of the test animals for CFU determination in normal and drug plates.”
# [2] = test system: P. aeruginosa (ATCC27853); conditions: P. aeruginosa (ATCC27853); summary
# E. coli ATCC25922 = experiment: MIC by broth microdilution, wild type strain ATCC25922; format: cell-based
# Experimental: Bacterial isolates were cultivated from −70° C. frozen stocks of the indicated strains by overnight passages at 35° C. in ambient air on Mueller-Hinton agar (Beckton Dickinson, Franklin Lakes, N.J.). Minimum Inhibitory Concentrations (MICs) were determined by the broth microdilution method in accordance with the Clinical and Laboratory Standards Institute (CLSI) guidelines. In brief, organism suspensions were adjusted to a 0.5 McFarland standard to yield a final inoculum between 3×10^5 and 7×10^5 colony-forming units (CFU)/mL. Drug dilutions and inocula were made in sterile, cation adjusted Mueller-Hinton Broth (Beckton Dickinson). An inoculum volume of 100 μL was added to wells containing 100 μL of broth with 2-fold serial dilutions of drug. All inoculated microdilution trays were incubated in ambient air at 35° C. for 18-24 hours. Following incubation, the lowest concentration of the drug that prevented visible growth (OD600 nm <0.05) was recorded as the MIC.
structure (smiles),measurement,setting,value
"CN[C@H](CC(C)C)C(=O)N[C@H]1C(=O)N[C@@H](CC(N)=O)C(=O)N[C@H]2C(=O)N[C@H]3C(=O)N[C@H](C(=O)N[C@H](C(=O)O)c4cc(O)cc(O)c4-c4cc3ccc4O)[C@H](O)c3ccc(c(Cl)c3)Oc3cc2cc(c3O[C@@H]2O[C@H](CO)[C@@H](O)[C@H](O)[C@H]2O[C@H]2C[C@](C)(N)[C@H](O)[C@H](C)O2)Oc2ccc(cc2Cl)[C@H]1O [Vancomycin, vancomycin]",Mean CFU/g thigh muscle (SEM),"[1]; 24 hr, normal plates, SC bid × 1, Vancomycin 25 mg/kg, LpxC-i 35 mg/kg",all animals died
same,animals for which the inoculum was lethal at 24 hours,[1]; Vancomycin only treatment group,100%
same,time within which all mice died,"[1]; vancomycin alone, SC at 2 and 14 hrs after inoculation",≤ 24 h
same,in vivo synergy with LpxC inhibitors,[2],surprising in vivo synergy
same,MIC,E. coli ATCC25922,> 256 µg/mL

# Source: patent publication US20120283175A1, “ANTIBACTERIAL COMPOSITIONS” (Achaogen, Inc., priority 2009, published 2012)
